Data taken from patent publication EP1196153B1, “PROCESS FOR THE IMPROVEMENT OF SPERMATOZOA FERTILIZATION ACTIVITY” (Applied Research Systems ARS Holding N.V., priority 1999, dated 2001).

Legend:
Type in all cases: cell-based, human
[1] = tested on: swim-up selected spermatozoa; assay: Forward motility of H2O2 treated swim-up selected spermatozoa; details: for forward motility: n=12
Method: It is well known that reactive oxygen species (ROS), which may be generated during sperm preparation for IVF, exert detrimental effects on sperm fertilization potential. In particular, among ROS, H2O2 strongly reduces motility when added to sperm samples at micromolar concentrations. Therefore, the effect of LY294002 on H2O2 treated sperm cells was evaluated. The compound was added to swim-up selected spermatozoa samples from oligoasthenospermic patients in amounts of 10 µM either alone or in combination with 200 µM of H2O2. […]

spermatozoa [2] = assay: Motility of spermatozoa in seminal liquid, evaluated blindly under the microscope (WHO manual)
Method: (§1) In the experiments the following examples are based on, standard methods of in vitro fertilization have been used. With regard to the details of these methods, reference is made to the "WHO manual" (WHO laboratory manual for the examination of human semen and sperm-cervical mucus interactions, 4th edtition, Cambridge University Press 1999). In particular, the direct swim-up method can be taken from pp. 104 to 106 of this manual.
Spermatozoa were prepared according to the standard procedures of IVF. Briefly, spermatozoa were prepared from 3 oligoasthenospermic subjects undergoing semen analysis for couple infertility after informed consent. 10 µM of the PI3K inhibitor LY294002 were added directly to the seminal liquid and incubated for 2 hours […] at 37°C and 5% CO2. The motility of the spermatozoa was then blindly evaluated under the microscope according to WHO manual procedures.
(§2) The compound was added in a concentration of 10 µM.

[3] = tested on: spermatozoa obtained by the swim-up method; assay: Motility of spermatozoa after incubation and swim-up selection
Source text: as §1, with “manual. […]” for “manual.”
Fig. 3 summarizes the results obtained in a similar experiment on samples from higher numbers of patients. The sperm cells were submitted to the swim-up selection method.
An improvement of percentage progressive motility after 2 hours of incubation of the sperm cells with LY294002 was clearly detectable, both on the rapid component (a) and on the rapid and slow component (a+b).
The experiments described above were performed on samples from oligoasthenospermic individuals. The effects on the stimulation of progressive motility by LY294002 are more pronounced the more serious the sperm pathology of patients is (oligospermia, asthenospermia, teratospermia). However, the effect of this compound could also be observed in normospermic subjects. […]

spermatozoa [4] = assay: Total sperm cell recovery in swim-up selection; details: n=20
Method: as §1, §2
Table II summarizes the total sperm cell recovery in the swim-up, which was increased by 43% as compared to the control.

spermatozoa [5] = assay: Sperm viability by eosin test and hypo-osmotic swelling; details: 100 µM
Method: The effect of 100µM of LY294002 on the viability of the spermatozoa was also assessed (see insert of Fig. 3).

spermatozoa [6] = assay: Computer aided sperm analysis (CASA) of sperm parameters; details: 10 µM; 12 oligoasthenospermic subjects; vs control sample; Fig. 6
Method: These parameters were determined by computer aided sperm analysis (CASA) in sperm samples from 12 different oligoasthenospermic subjects.

[7] = tested on: swim-up selected spermatozoa; assay: Forward motility of LiCl treated swim-up selected spermatozoa; details: 10 µM, two hours, with or without different concentrations of LiCl; Fig. 7
Source text: LiCl is also a known inhibitor of sperm cell motility.

[8] = 10 µM, 2 hours of incubation, 12 individual patients, swim-up, Fig. 4

**Q.** `OO` [H2O2] was tested. Which forward motility ([1]; 200 µM H2O2 alone, oligoasthenospermic patients, control 45.4±5.0, P<0.0001 vs Control) did it give?
**A.** 26.5±4.9 (n=12) %

**Q.** With `O=c1cc(N2CCOCC2)oc2c(-c3ccccc3)cccc12` [LY294002, 2-(4-morpholinyl)-8-phenyl-4H-1-benzopyran-4-one] as the compound, how does the “rapid motility (a) of the spermatozoa in the seminal liquid” value (spermatozoa [2]; 10 µM, 2 hours, 37°C, 5% CO2, 3 oligoasthenospermic subjects, Fig. 1) read?
**A.** increase of rapid motility

**Q.** What about the “percentage of forward motility (rapid and slow component a + b) in the seminal liquid” value (spermatozoa [2]; 10 µM, 2 hours, 37°C, 5% CO2, 3 oligoasthenospermic subjects, Fig. 1B) of the same compound?
**A.** increase

**Q.** And the “% Sperm Forward Motility, Sperm in Seminal Plasma” value (spermatozoa [2]; LY 10 µM added to seminal plasma, 20 oligoasthenospermic patients, control 35.7±5.1, p<0.001)?
**A.** 49.8±4.7%

**Q.** And the “percentage progressive motility, rapid and slow component (a+b)” value [3, 8]?
**A.** improvement

**Q.** And the “percentage progressive motility, rapid component (a)” value [3, 8]?
**A.** improvement

**Q.** What about the “forward motility of spermatozoa” value ([3]; 10 µM, two hours, then swim-up selection, 88 randomly selected subjects, control 53.5 ± 2.0 %) of the same compound?
**A.** 76.3 ± 1.5%

**Q.** What about the “additional enhancement of spermatozoa motility” value ([3]; 100 µM compared with 10 µM, swim-up, Fig. 3) of the same compound?
**A.** about 10%

**Q.** And the progressive motility ([3]; 100 µM, 2 hours, then swim-up selection, 7 samples, Fig. 2)?
**A.** significant increase

**Q.** What about the activation at 10 µM ([3]; Homo sapiens, Spermatozoa, 10 µM, 21 patients vs control 40 patients, swim-up, Fig. 3, read-out: increase in the progressive motility as compared to the control) of the same compound?
**A.** 58%

**Q.** And the activation at 100 µM ([3]; Homo sapiens, Spermatozoa, 100 µM, 29 patients vs control 40 patients, swim-up, Fig. 3, read-out: increase of the motility as compared to the control)?
**A.** 67%

**Q.** And the EC50 ([3]; Homo sapiens, Spermatozoa, samples from normospermic individuals, 0 to 1000 µM, swim-up, Fig. 5, read-out: EC50 (effect dose of 50%) on the rapid forward motility)?
**A.** ~1 µM

**Q.** What about the “% Sperm Forward Motility, Swim up-selected sperm” value ([3]; LY 10 µM added to seminal plasma, then swim-up, 20 oligoasthenospermic patients, control 54.2±4.5, p<0.001) of the same compound?
**A.** 68.6±3.9%

**Q.** What about the “increase of total sperm cell recovery in the swim-up vs control” value (spermatozoa [4]; 10 µM) of the same compound?
**A.** 43%

**Q.** What about the “Sperm recovery in swim up” value (spermatozoa [4]; LY 10 µM, control 13.3 ± 3.9, p<0.005) of the same compound?
**A.** 19.0 ± 4.8 10^6

**Q.** What about the sperm viability (spermatozoa [5]; 48 hours of incubation (not shown)) of the same compound?
**A.** no effect on sperm viability

**Q.** What about the “vitality of the cells” value (spermatozoa [5]; incubation for two hours, eosin test and hypo-osmotic swelling) of the same compound?
**A.** did not alter the vitality

**Q.** What about the “average path velocity (VAP)” value (spermatozoa [6]) of the same compound?
**A.** increased in a statistically significant manner

**Q.** What about the “hyperactivated sperm fraction (HA)” value (spermatozoa [6]) of the same compound?
**A.** increased in a statistically significant manner

**Q.** And the “percentage curvilinear velocity (VCL)” value (spermatozoa [6])?
**A.** increased in a statistically significant manner

**Q.** What about the “straight-line velocity (VSL)” value (spermatozoa [6]) of the same compound?
**A.** increased in a statistically significant manner

**Q.** What about the “detrimental effects exerted by 200 µM H2O2 on sperm motility” value ([1]; 10 µM LY294002 added to the incubation medium) of the same compound?
**A.** completely reversed

**Q.** And the forward motility ([1]; 10 µM LY294002 in combination with 200 µM H2O2, P<0.002 vs H2O2)?
**A.** 52.6±5.5 (n=12) %

**Q.** And the forward motility ([1]; 10 µM alone, oligoasthenospermic patients, control 45.4±5.0, P<0.0001 vs Control)?
**A.** 71.7±3.2 (n=12) %

**Q.** What about the “LiCl induced inhibition of sperm motility” value [7] of the same compound?
**A.** reversing the effect
